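Briefly, cells in 96-well plates were exposed to five compound concentrations for 48 h, and endpoints were estimated by linear interpolation. Here, GI50 denotes the concentration required for 50% inhibition of growth. At the TGI there is no net growth.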
Assays:
Experiment in all cases: DTP human tumour cell line panel, 48 h
SW-620 colon = tested on: SW-620 colon
A549 NSCLC = tested on: A549 NSCLC
SK-OV-3 ovarian = tested on: SK-OV-3 ovarian
SF-539 CNS = tested on: SF-539 CNS
LOX IMVI melanoma = tested on: LOX IMVI melanoma
SK-MEL-5 melanoma = tested on: SK-MEL-5 melanoma
SR leukemia = tested on: SR leukemia
NCI-H522 lung = tested on: NCI-H522 lung
ACHN renal = tested on: ACHN renal
HS 578T breast = tested on: HS 578T breast
OVCAR-3 ovarian = tested on: OVCAR-3 ovarian
HOP-62 NSCLC = tested on: HOP-62 NSCLC
MDA-MB-231 breast = tested on: MDA-MB-231 breast
BT-549 breast = tested on: BT-549 breast
HCT-15 colon = tested on: HCT-15 colon
MALME-3M melanoma = tested on: MALME-3M melanoma
U251 CNS = tested on: U251 CNS
UACC-257 melanoma = tested on: UACC-257 melanoma
SF-295 CNS = tested on: SF-295 CNS
SNB-19 CNS = tested on: SNB-19 CNS
HOP-92 NSCLC = tested on: HOP-92 NSCLC
NCI-H226 lung = tested on: NCI-H226 lung
UACC-62 melanoma = tested on: UACC-62 melanoma
HL-60(TB) leukemia = tested on: HL-60(TB) leukemia
MCF7 breast = tested on: MCF7 breast
MOLT-4 leukemia = tested on: MOLT-4 leukemia
K-562 leukemia = tested on: K-562 leukemia
PC-3 prostate = tested on: PC-3 prostate
HCC-2998 colon = tested on: HCC-2998 colon
HT29 colon = tested on: HT29 colon
CAKI-1 renal = tested on: CAKI-1 renal
SK-MEL-28 melanoma = tested on: SK-MEL-28 melanoma
OVCAR-4 ovarian = tested on: OVCAR-4 ovarian
UO-31 renal = tested on: UO-31 renal
786-0 renal = tested on: 786-0 renal
NCI-H23 lung = tested on: NCI-H23 lung
T-47D breast = tested on: T-47D breast
RPMI-8226 leukemia = tested on: RPMI-8226 leukemia
COLO 205 colon = tested on: COLO 205 colon
MDA-MB-435 = tested on: MDA-MB-435
EKVX NSCLC = tested on: EKVX NSCLC
TK-10 renal = tested on: TK-10 renal
IGROV1 ovarian = tested on: IGROV1 ovarian
DU-145 prostate = tested on: DU-145 prostate
OVCAR-8 ovarian = tested on: OVCAR-8 ovarian
SK-MEL-2 melanoma = tested on: SK-MEL-2 melanoma
RXF 393 renal = tested on: RXF 393 renal
M14 melanoma = tested on: M14 melanoma
SN12C renal = tested on: SN12C renal
KM12 colon = tested on: KM12 colon
A498 renal = tested on: A498 renal
NCI/ADR-RES ovarian = tested on: NCI/ADR-RES ovarian
SNB-75 CNS = tested on: SNB-75 CNS
SF-268 CNS = tested on: SF-268 CNS
HCT-116 colon = tested on: HCT-116 colon
CCRF-CEM leukemia = tested on: CCRF-CEM leukemia
OVCAR-5 ovarian = tested on: OVCAR-5 ovarian

COc1cccc2c1C(=O)c1c(O)c3c(c(O)c1C2=O)C[C@@](O)(C(C)=O)C[C@@H]3O[C@H]1C[C@H](N)[C@H](O)[C@H](C)O1
GI50 (SW-620 colon): 0.0355 µM
TGI (SW-620 colon): 0.855 µM
GI50 (A549 NSCLC): 0.0427 µM
TGI (A549 NSCLC): 0.201 µM
GI50 (SK-OV-3 ovarian): 0.0887 µM
TGI (SK-OV-3 ovarian): 1.32 µM
TGI (SF-539 CNS): 0.546 µM
TGI (LOX IMVI melanoma): 0.107 µM
GI50 (SK-MEL-5 melanoma): 0.0488 µM
TGI (SK-MEL-5 melanoma): 0.143 µM
GI50 (SR leukemia): 0.00724 µM
TGI (SR leukemia): 0.188 µM
GI50 (NCI-H522 lung): 0.0362 µM
TGI (NCI-H522 lung): 0.163 µM
GI50 (ACHN renal): 0.0452 µM
TGI (ACHN renal): 0.395 µM
GI50 (HS 578T breast): 0.12 µM
TGI (HS 578T breast): 1.82 µM
GI50 (OVCAR-3 ovarian): 0.125 µM
TGI (OVCAR-3 ovarian): 0.777 µM
GI50 (HOP-62 NSCLC): 0.053 µM
TGI (HOP-62 NSCLC): 0.263 µM
GI50 (MDA-MB-231 breast): 0.201 µM
TGI (MDA-MB-231 breast): 2.75 µM
GI50 (BT-549 breast): 0.153 µM
TGI (BT-549 breast): 0.924 µM
TGI (HCT-15 colon): 5.69 µM
TGI (MALME-3M melanoma): 0.235 µM
GI50 (U251 CNS): 0.0381 µM
TGI (U251 CNS): 0.217 µM
TGI (UACC-257 melanoma): 0.426 µM
GI50 (SF-295 CNS): 0.0428 µM
TGI (SF-295 CNS): 0.245 µM
GI50 (SNB-19 CNS): 0.0361 µM
TGI (SNB-19 CNS): 1.35 µM
GI50 (HOP-92 NSCLC): 0.0296 µM
TGI (HOP-92 NSCLC): 0.276 µM
GI50 (NCI-H226 lung): 0.0532 µM
TGI (NCI-H226 lung): 0.119 µM
GI50 (UACC-62 melanoma): 0.0598 µM
TGI (UACC-62 melanoma): 0.205 µM
GI50 (HL-60(TB) leukemia): 0.0312 µM
TGI (HL-60(TB) leukemia): 0.358 µM
GI50 (MCF7 breast): 0.0195 µM
TGI (MCF7 breast): 2.04 µM
GI50 (MOLT-4 leukemia): 0.0165 µM
TGI (MOLT-4 leukemia): 0.117 µM
GI50 (K-562 leukemia): 0.0513 µM
TGI (K-562 leukemia): 0.868 µM
GI50 (PC-3 prostate): 0.108 µM
TGI (PC-3 prostate): 0.975 µM
GI50 (HCC-2998 colon): 0.0992 µM
TGI (HCC-2998 colon): 0.475 µM
GI50 (HT29 colon): 0.0507 µM
TGI (HT29 colon): 0.337 µM
GI50 (CAKI-1 renal): 0.229 µM
TGI (CAKI-1 renal): 1.53 µM
GI50 (SK-MEL-28 melanoma): 0.132 µM
TGI (SK-MEL-28 melanoma): 0.68 µM
GI50 (OVCAR-4 ovarian): 0.128 µM
TGI (OVCAR-4 ovarian): 1.06 µM
GI50 (UO-31 renal): 0.175 µM
TGI (UO-31 renal): 1.26 µM
GI50 (786-0 renal): 0.0685 µM
TGI (786-0 renal): 0.517 µM
GI50 (NCI-H23 lung): 0.0594 µM
TGI (NCI-H23 lung): 0.262 µM
GI50 (T-47D breast): 0.0408 µM
TGI (T-47D breast): 0.312 µM
GI50 (RPMI-8226 leukemia): 0.0902 µM
TGI (RPMI-8226 leukemia): 0.327 µM
GI50 (COLO 205 colon): 0.0524 µM
TGI (COLO 205 colon): 0.655 µM
GI50 (MDA-MB-435): 0.137 µM
TGI (MDA-MB-435): 0.672 µM
GI50 (EKVX NSCLC): 0.36 µM
TGI (EKVX NSCLC): 2.63 µM
GI50 (TK-10 renal): 0.0936 µM
TGI (TK-10 renal): 0.793 µM
GI50 (IGROV1 ovarian): 0.0609 µM
TGI (IGROV1 ovarian): 2.58 µM
GI50 (DU-145 prostate): 0.0687 µM
TGI (DU-145 prostate): 0.34 µM
GI50 (OVCAR-8 ovarian): 0.0416 µM
TGI (OVCAR-8 ovarian): 1.09 µM
GI50 (SK-MEL-2 melanoma): 0.158 µM
TGI (SK-MEL-2 melanoma): 0.506 µM
GI50 (RXF 393 renal): 0.0924 µM
TGI (RXF 393 renal): 0.341 µM
GI50 (M14 melanoma): 0.118 µM
TGI (M14 melanoma): 0.653 µM
GI50 (SN12C renal): 0.0416 µM
TGI (SN12C renal): 0.451 µM
GI50 (KM12 colon): 0.096 µM
TGI (KM12 colon): 0.497 µM
TGI (A498 renal): 0.896 µM
GI50 (NCI/ADR-RES ovarian): 1.23 µM
TGI (NCI/ADR-RES ovarian): 9.04 µM
GI50 (SNB-75 CNS): 0.0391 µM
TGI (SNB-75 CNS): 0.359 µM
GI50 (SF-268 CNS): 0.0548 µM
TGI (SF-268 CNS): 0.585 µM
GI50 (HCT-116 colon): 0.0286 µM
TGI (HCT-116 colon): 0.216 µM
GI50 (CCRF-CEM leukemia): 0.0228 µM
TGI (CCRF-CEM leukemia): 0.293 µM
GI50 (OVCAR-5 ovarian): 0.155 µM
TGI (OVCAR-5 ovarian): 2.26 µM

— PubChem BioAssay (NCI)
